What was measured:
human 5-HT1A receptor = target: T1, human 5-HT1A receptor (Homo sapiens, UniProt P08908); assay: 5-HT1A receptor binding assay with [3H]8-OH-DPAT on CHO cell membranes; conditions: @ 1000 nM, 5-HT1A.CHO cell membranes
T1 construct: expressed in transfected cells
T1 sequence (P08908 1-422): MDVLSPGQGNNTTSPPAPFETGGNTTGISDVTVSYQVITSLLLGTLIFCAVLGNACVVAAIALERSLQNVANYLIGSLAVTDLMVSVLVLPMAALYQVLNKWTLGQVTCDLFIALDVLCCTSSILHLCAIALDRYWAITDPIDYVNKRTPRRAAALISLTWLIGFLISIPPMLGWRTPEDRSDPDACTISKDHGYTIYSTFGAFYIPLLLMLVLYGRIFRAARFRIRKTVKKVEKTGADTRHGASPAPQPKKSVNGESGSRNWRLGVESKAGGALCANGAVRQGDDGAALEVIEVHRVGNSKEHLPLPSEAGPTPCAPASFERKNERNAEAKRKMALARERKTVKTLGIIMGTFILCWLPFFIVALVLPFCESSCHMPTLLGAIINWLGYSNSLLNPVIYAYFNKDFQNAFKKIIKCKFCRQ
Protocol: The PCR cloning of the human 5-HT1A receptor subtype from a human genomic library has been described previously by Chanda et al., Mol. Pharmacol., 43:516 (1993). A stable Chinese hamster ovary cell line expressing the human 5-HT1A receptor subtype (5-HT1A.CHO cells) was employed throughout this study. Cells were maintained in DMEM supplemented with 10% fetal calf serum, non-essential amino acids and penicillin/ streptomycin.
Cells were grown to 95-100% confluency as a monolayer before membranes were harvested for binding studies. Cells were gently scraped from the culture plates, transferred to centrifuge tubes, and washed twice by centrifugation (2000 rpm for 10 min., 4°C) in buffer (50 mM Tris; pH 7.5). The resulting pellets were aliquoted and maintained at -80•C. On the day of assay, the cells were thawed on ice, and resuspended in buffer. Studies were conducted using [^3H]8-OH-DPAT as the radioligand. The binding assay was performed in 96 well microtiter plates in a final total volume of 250 µL of buffer. Comparison experiments werc performed by using 7 concentrations of unlabelled drug and a final ligand concentration of 1.5 nM. Nonspecific binding was determined in the presence of 10 µM 5HT. Saturation analysis was conducted by using [^3H]8-OH-DPAT at concentrations ranging from 0.3-30 nM. […]

serotonin transporter = target: T2, serotonin transporter (Rattus norvegicus, UniProt P31652); assay: Serotonin transporter binding assay with 3H-paroxetine on frontal cortical membranes; set-up: species or system male Sprague-Dawley rats
T2 construct: frontal cortical membranes prepared from male Sprague-Dawley rats; from tissue; host or cells: frontal cortex of male Sprague-Dawley rats (membranes)
Protocol: A protocol similar to that used by Cheetham et al., Neuropharmacol., 32:737 (1993) was used to determine the affinity of compounds for the serotonin transporter. Briefly, frontal cortical membranes prepared from male Sprague-Dawley rats were incubated with ^3H-paroxetine (0.1 nM) for 60 min at 25°C. All tubes also contained either vehicle, test compound (one to eight concentrations), or a saturating concentration of fluoxetine (10 µM) to define […]. All reactions were terminated by the addition of ice cold Tris buffer followed by rapid filtration using a Tom Tech filtration device to separate bound from free ^3H-paroxetine. Bound radioactivity was quantitated using a Wallac 1205 Beta Plate® counter. Nonlinear regression analysis was used to determine IC50 values which were converted to Ki values using the method set forth in Cheng and Prusoff, Biochem. Pharmacol., 22:3099 (1973) ([…].

T2 sequence (P31652 whole entry): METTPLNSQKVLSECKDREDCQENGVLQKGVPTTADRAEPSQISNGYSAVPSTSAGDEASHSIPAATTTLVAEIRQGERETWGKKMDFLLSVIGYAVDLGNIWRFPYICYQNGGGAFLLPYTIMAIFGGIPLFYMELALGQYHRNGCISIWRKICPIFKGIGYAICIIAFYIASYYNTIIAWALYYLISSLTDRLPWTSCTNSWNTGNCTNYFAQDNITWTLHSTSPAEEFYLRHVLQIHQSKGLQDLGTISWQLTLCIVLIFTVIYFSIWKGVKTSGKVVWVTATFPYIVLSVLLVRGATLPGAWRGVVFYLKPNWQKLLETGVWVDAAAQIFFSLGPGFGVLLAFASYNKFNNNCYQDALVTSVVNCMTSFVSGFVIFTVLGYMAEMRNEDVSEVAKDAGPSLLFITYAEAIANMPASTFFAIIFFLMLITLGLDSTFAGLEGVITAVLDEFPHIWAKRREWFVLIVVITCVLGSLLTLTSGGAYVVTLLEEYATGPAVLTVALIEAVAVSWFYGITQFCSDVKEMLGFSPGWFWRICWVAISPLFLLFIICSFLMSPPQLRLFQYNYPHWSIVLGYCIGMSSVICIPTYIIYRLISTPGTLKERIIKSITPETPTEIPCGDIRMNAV

SMILES | 5-HT1A (Ki, nM) (human 5-HT1A receptor) | Ki (serotonin transporter) | ST (Ki, nM,) (serotonin transporter; @ 100 nM, 3H-paroxetine, rat frontal cortical membranes)
COc1ccsc1C1=CCN([C@H]2CC[C@@H](c3c[nH]c4ccc(F)cc43)CC2)CC1 [Example 1, 5-Fluoro-3-{(1,4-cis)-4-[4-(3-methoxy-thiophen-2-yl)-3,6-dihydro-2H-pyridin-1-yl]-cyclohexyl}-1H-indole] | 48% @ 1000 nM | 2.5 nM | 
COc1ccsc1C1=CCN([C@H]2CC[C@H](c3c[nH]c4ccc(F)cc43)CC2)CC1 [Example 2, 5-Fluoro-3-{(1,4-trans)-4-[4-(3-methoxy-thiophen-2-yl)-3,6-dihydro-2H-pyridin-1-yl]-cyclohexyl}-1H-indole] |  |  | 18% @ 100 nM
